“Also recorded” adds a separate entry of the source.
Legend:
TNFα = TNFα protein secretion by activated RBL cells (ELISA); format: cell-based, rodent; details: secreted TNFα (pre-stored plus de novo) 4 hours after Ca2+ re-exposure
Protocol: (§1) [Ca^2+]ER in RBL2H3 cells were depleted by Tg in the same manner in the presence of the CRAC channel blockers as for [Ca^2+]i measurement but without loading the cells with Fluo-4NW. Then 200 μl of DMEM-3% FBS (containing 3 mM Ca^2+) was supplemented back in the presence of the corresponding concentration of CRAC channel blockers. Thirty minutes after Ca^2+-add back culture supernatant was collected for degranulation measurement. Degranulation was measured as secreted β-hexosaminidase according to the protocol of the assay kit (Sigma-Aldrich, MO, USA). Nuclear fraction was prepared from the cells for NFAT by using a subcellular protein fractionation kit (NE-PER™ Nuclear and Cytoplasmic Extraction Reagents, Pierce Biotechnology, Thermo Fisher Scientific, MA, USA). Nuclear NFAT-c1 was measured with an ELISA kit (Active Motif, CA, USA). At this time point TNFα was measured as pre-stored release with ELISA kits (R&D Systems, MN, USA). In a part after Ca^2+ add back incubation was prolonged for 4 h to measure de novo production of the cytokine TNFα.
(§2) IC50 and EC50 were calculated by nonlinear regression using Prims Graphpad software. Statistical analysis was performed by one-way ANOVA and post-hoc test (Tukey's test).
Mast cells can secrete pre-stored TNFα immediately upon activation, as well as de novo synthesized TNFα that takes a few hours to produce. RBL cells were activated similarly as described above, in the presence of various concentrations of a CRAC channel blocker. 4 Hours after RBL cells were re-exposed to Ca^2+, secreted TNFα (which accounted for the combined protein from pre-stored and de novo synthesized TNFα) in the supernatants were measured by ELISA.

NFAT-c1 = test: Nuclear translocation of NFAT in activated RBL cells (nuclear NFAT-c1 ELISA); format: cell-based, rodent
Protocol: as §1
The inhibition of nuclear translocation of the nuclear factor of activated T-cells (NFAT) by compound 12 in activated MCs was determined. […] Nuclear fraction was prepared from the cells by subcellular protein fractionation, and the nuclear NFAT-c1 content was measured by ELISA. […]

RBL-2H3 cells = test: Mast cell degranulation: β-hexosaminidase release from thapsigargin-activated RBL-2H3 cells; format: cell-based, rodent; details: 1 μM thapsigargin
Protocol: as §1
Compound 12 was used to determine the inhibition of MC degranulation by measuring the release of pre-stored β-hexosaminidase 03-hex) upon MC activation. […] 30 Minutes after assay media were replenished with extracellular Ca^2+, supernatants and cell lysates were analyzed for β-hex concentrations by ELISA.

CRAC channel = CRAC channel (Rattus norvegicus, UniProt Q5M848); test: Inhibition of thapsigargin-induced calcium influx (intracellular Ca2+, Fluo-4NW) in RBL-2H3 cells; format: cell-based, rodent; details: 1 μM thapsigargin, 60 min compound incubation
Chain of CRAC channel (Q5M848 whole entry): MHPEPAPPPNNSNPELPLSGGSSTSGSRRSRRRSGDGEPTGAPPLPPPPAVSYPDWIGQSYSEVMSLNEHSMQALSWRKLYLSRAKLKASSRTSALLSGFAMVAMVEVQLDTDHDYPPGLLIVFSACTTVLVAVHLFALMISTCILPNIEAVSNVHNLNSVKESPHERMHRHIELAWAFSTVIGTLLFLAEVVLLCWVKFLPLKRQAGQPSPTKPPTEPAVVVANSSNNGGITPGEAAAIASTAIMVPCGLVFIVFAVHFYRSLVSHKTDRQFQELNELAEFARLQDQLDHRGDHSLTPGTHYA
Chain of CRAC channel (P84903 23-685, further chain): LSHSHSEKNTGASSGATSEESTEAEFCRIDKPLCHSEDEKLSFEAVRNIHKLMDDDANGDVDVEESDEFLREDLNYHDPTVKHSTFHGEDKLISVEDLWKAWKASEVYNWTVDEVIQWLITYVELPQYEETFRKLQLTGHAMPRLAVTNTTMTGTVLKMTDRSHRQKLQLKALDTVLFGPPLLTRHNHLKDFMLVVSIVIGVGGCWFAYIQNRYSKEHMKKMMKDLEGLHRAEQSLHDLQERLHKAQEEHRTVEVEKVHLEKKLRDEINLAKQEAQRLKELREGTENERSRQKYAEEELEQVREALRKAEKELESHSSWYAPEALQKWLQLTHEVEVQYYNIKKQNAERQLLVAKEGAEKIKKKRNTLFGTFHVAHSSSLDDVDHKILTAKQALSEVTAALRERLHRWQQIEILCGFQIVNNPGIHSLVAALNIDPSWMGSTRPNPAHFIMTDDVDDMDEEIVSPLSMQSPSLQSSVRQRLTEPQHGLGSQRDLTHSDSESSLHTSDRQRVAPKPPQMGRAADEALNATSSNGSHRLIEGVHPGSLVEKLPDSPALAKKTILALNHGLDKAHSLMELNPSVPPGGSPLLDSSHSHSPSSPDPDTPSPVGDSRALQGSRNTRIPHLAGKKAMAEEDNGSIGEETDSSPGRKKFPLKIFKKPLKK
Protocol: RBL-2H3 cells (ATCC) were seeded in 96-well plate at 4×10^4 cells per well in DMEM-supplemented with 2% FBS and allowed to adhere overnight. Culture medium was then replaced with 50 μl of Ca^2+-free Tyrode solution to load Ca^2+-probe Fluo-4NW (Molecular Probe, Thermo Fisher, MA, USA) at 1:1 to the cells. New compound at indicated concentration was supplied during the probe loading from the beginning. Cells were incubated in the presence or absence of new compound for 60 minutes in the Ca^2+-free medium at 37° C. During the last 5 minutes of incubation, cells were treated with 1 μM thapsigargin (Sigma Aldrich) to deplete [Ca^2+]ER. 20 mM CaCl2 in saline solution was supplemented back to the [Ca^2+]ER-depleted cells to be 2 mM as final. Cell medium was removed 1 minute after Ca^2+ reloading, and changes in Fluo-4NW fluorescence (RFU) were recorded with the multi-mode plate reader (FilterMax F5, Molecular Devices/Thermo Fisher Scientific, MA, USA) at an excitation wavelength of 485 nm and an emission wavelength of 535 nm.
as §2
Inhibitory activity of calcium influx by the described compounds was determined using the RBL-2H3 rodent MC cell line as the primary in vitro assay. […]

[1] = test system: wounds of diabetic (STZ) C57B16 mice; test: Wound healing in diabetic mice; format: in vivo; details: DM mice
Excerpt: (§3) C57B16 mice were made diabetic (DM) using Streptozotocin (STZ) and rabbits were made DM using alloxan. A 10-day wound-healing period was chosen since at least 80% wounds in non-DM mice and rabbits heal by that time-point. A dressing based on an alginate bandage for topical sustained release of Compound 1 was generated following the methods described in WO 2014/169250, and was then applied the shaved dorsum of DM mice either before (pre-wound) or after wounds (post-wound) were introduced. A comparison was made with the FDA-approved MC stabilizer, disodium cromoglycate (DSCG), 50 mg/kg DSCG (Intraperitoneal (ip) daily, 10 consecutive days prior to wounding) in non-DM and DM mice followed by wound procedure. Wound healing was monitored for 10 days.

[2] = test system: macrophages in skin of DM mice; test: M1/M2 macrophages in intact skin of diabetic mice; format: in vivo
Excerpt: as §3

## O=C(Nc1ccc(F)cc1F)c1nn(Cc2ccc(Cl)cc2Cl)c2ccccc12 [Compound 14, 1-[(2,4-dichlorophenyl)methyl]-N-(2,4-difluorophenyl)indazole-3-carboxamide]
TNFα
  IC50: 640 nM

## O=C(Nc1ccncc1F)c1cn(Cc2ccc(Cl)cc2Cl)c2ccccc12 [Compound 11, 1[(2,4-dichlorophenyl)methyl]-N-(3-fluoro-4-pyridyl)indole-3-carboxamide]
TNFα
  IC50: 580 nM

## O=C(Nc1c(F)cccc1F)c1nn(Cc2ccc(Cl)cc2Cl)c2ccccc12 [Compound 7, 1-[(2,4-dichlorophenyl)methyl]-N-(2,6-difluorophenyl)indazole-3-carboxamide]
TNFα
  IC50: 470 nM

## O=C(Nc1nn(Cc2ccc(Cl)cc2Cl)c2ccccc12)c1ccncc1F [Compound 12, N-[1-[(2,4-dichlorophenyl)methyl]indazol-3-yl]-3-fluoro-pyridine-4-carboxamide]
NFAT-c1; 1 μM thapsigargin, 30 min after Ca2+ add back, various concentrations, 5-fold increase without blocker
  nuclear fraction of NFAT-c1 in activated RBL cells: significantly and dose-dependently reduced the nuclear fraction of NFAT-c1; also recorded: dose-dependent inhibition
NFAT-c1; 10 μM and higher, activated RBL cells
  levels of nuclear NFAT at 10 μM and higher concentrations: restore the levels of nuclear NFAT to that of resting MCs
RBL-2H3 cells; 40% of β-hex released without inhibitor
  inhibition of β-hex release at the highest concentration tested: nearly complete inhibition of β-hex release
RBL-2H3 cells; 30 min after Ca2+ add back, various concentrations
  inhibition of β-hex release: significantly and dose-dependently inhibited the release of β-hex; also recorded: dose-dependent inhibition
TNFα
  IC50: 280 nM

## O=C(Nc1nn(Cc2ccc(Cl)cc2Cl)c2ccccc12)c1ccccc1F [Compound 3, N-[1-[(2,4-dichlorophenyl)methyl]indazol-3-yl]-2-fluoro-benzamide]
CRAC channel
  IC50: 29000 nM

## O=C(Nc1c(F)cncc1F)c1nn(Cc2ccc(Cl)cc2Cl)c2ccccc12 [Compound 15, 1-[(2,4-dichlorophenyl)methyl]-N-(3,5-difluoro-4-pyridyl)indazole-3-carboxamide]
TNFα
  IC50: 140 nM

## O=C([O-])c1cc(=O)c2c(OCC(O)COc3cccc4oc(C(=O)[O-])cc(=O)c34)cccc2o1.[Na+].[Na+] [DSCG, disodium cromoglycate, reference compound]
[1]; 50 mg/kg ip daily, 10 consecutive days prior to wounding, p<0.05
  wound healing: improved diabetic mouse wound healing
[2]; DSCG treatment
  M1/M2 ratio in intact skin: reduced M1/M2 ratio in intact skin

## O=C(Nc1c(F)cccc1Cl)c1nn(Cc2ccc(Cl)cc2Cl)c2ccccc12 [Compound 8, N-(2-chloro-6-fluoro-phenyl)-1-[(2,4-dichlorophenyl)methyl]indazole-3-carboxamide]
TNFα
  IC50: 740 nM

## O=C(Nc1c(F)cccc1F)c1cn(Cc2ccc(Cl)cc2Cl)c2ccccc12 [Compound 1, 1-[(2,4-dichlorophenyl)methyl]-N-(2,6-difluorophenyl)indole-3-carboxamide]
[1]; topical alginate dressing, 10 days pre-wounding or 10 days post-wounding, monitored 10 days
  wound healing: improved wound healing similar to systemic DSCG pre-treatment
[2]; treatment for 10 days without any wound
  number of M2 macrophages in skin: increased the number of M2 macrophages
